Consider four compounds from article PMC6208908, “Field template-based design and biological evaluation of new sphingosine kinase 1 inhibitors” (Breast Cancer Research and Treatment, 2018).

One data set has as its target recombinant SK1 (Homo sapiens, UniProt Q9NYA1). Nature of the data set: SK1 activity assay, cell-free (recombinant SK1 extract, radiolabelling). The data set is classed as biochemical. Particulars: 1 µM compound, recombinant SK1 extract in excess, 1 µM ATP, 1 µM sphingosine, 1 h. The protocol:
(§1) SK assay was performed using radiolabeling as previously described, in conditions favouring SK1 or SK2 activity as required.
The synthesised compounds were then screened for SK1 inhibition. Compounds SK-A to SK-F and SKI-II (commercial inhibitor of SK used as positive control with reported IC50 0.5 µM [14]) at 1 µM were incubated in the presence of recombinant SK1 extract (in excess), 1 µM of ATP, and exogenous 1 µM sphingosine for 1 h followed by measurement of SK1 activity.
(§2) Fig. 2 Inhibition of sphingosine kinase 1 in cell-free extract and in vitro. a 1 µM of compounds SK-A to SK-F and SKI-II (commercial inhibitor of SK used as a positive control) were incubated in the presence of recombinant SK1 extract (in excess), 1 µM of ATP, and 1 µM exogenous sphingosine for 1 h. b MDA-MB-231 cells were incubated with 1 µM of compounds SK-A to SK-F and SKI-II for 6 h. SK1 activity was measured as described in materials and methods. Columns, means of three independent experiments normalised to vehicle; bars, SEM. (ns, non-significant; *p < 0.05; **p < 0.01)
SK1 activity was determined in the presence of triton X-100 and SK2 activity was measured in the presence of high salt concentrations, conditions that favour SK1 and SK2, respectively. […] Km for SK1 was 6.97 ± 1.20 µM, Vmax 98 ± 4 µM/min/mg protein and Ki for SK-F 0.46 ± 0.1 µM. […] Some SK inhibitors such as SKI-II were previously shown to induce proteasomal degradation of SK1 [48, 49].

For data set [1], the target named is T1, endogenous SK1 in MDA-MB-231 cells (Homo sapiens, UniProt Q9NYA1).
T1 construct: We treated MDA-MB-231 cells with 1 µM of compounds SK-A – SK-F and SKI-II as the positive control for 6 h; endogenous in cells; host or cells: MDA-MB-231
T1 sequence (Q9NYA1 whole entry): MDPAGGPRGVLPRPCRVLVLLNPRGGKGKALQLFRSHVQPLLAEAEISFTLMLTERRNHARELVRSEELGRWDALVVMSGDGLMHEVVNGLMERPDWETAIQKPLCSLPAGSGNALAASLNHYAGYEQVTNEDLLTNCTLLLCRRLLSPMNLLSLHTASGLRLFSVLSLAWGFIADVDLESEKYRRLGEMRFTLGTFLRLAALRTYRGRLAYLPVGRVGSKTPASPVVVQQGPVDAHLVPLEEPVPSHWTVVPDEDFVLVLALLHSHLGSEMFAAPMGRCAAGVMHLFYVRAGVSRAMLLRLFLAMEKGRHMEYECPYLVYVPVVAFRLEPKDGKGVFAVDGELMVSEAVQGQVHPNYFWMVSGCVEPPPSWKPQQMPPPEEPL
The experiment in a line: SK1 activity in lysates of treated MDA-MB-231 cells. The settings on record: 1 µM, 6 h. The format is cell-based. The procedure:
After incubation, cells were washed with ice-cold phosphate-buffered saline (PBS) and harvested.
as §1, §2
Reportedly, among human tumour cell lines, the breast cancer cell line MDA-MB-231 expresses high levels of SK activity. We treated MDA-MB-231 cells with 1 µM of compounds SK-A – SK-F and SKI-II as the positive control for 6 h and analysed SK1 activity in the cell lysates using SK1 activity assay.

For a further data set, the system named is SK1 mRNA. The experiment in a line: SK1 mRNA expression by qRT-PCR in MDA-MB-231 cells. The settings on record: 1, 2, 5 and 10 µM, 24 h. The data set is classed as cell-based, human. The protocol: Isolation of total RNA from MDA-MB-231 cells was performed using the RNeasy Mini kit (Qiagen, Valencia, CA, USA) as per manufacturer’s instructions. RNA quantity and purity were measured using a NanoDrop ND-1000 Spectrophotometer (Thermo Fisher Scientific, Loughborough, UK). Reverse transcription was performed using precision nanoScript™ reverse transcription kit (PrimerDesign Ltd, Southampton, UK). qRT-PCR was done as already described. Ct values were exported and analysed using qbase software (Biogazelle NV, Zwijnaarde, Belgium).
Fig. 3 Effect of compounds SK-A to SK-F on SK1 mRNA levels. MDA-MB-231 cells were incubated with 1, 2, 5 and 10 µM of compounds SK-A to SK-F for 24 h. SK1 mRNA expression was measured by qRT-PCR. Columns, means of three independent experiments normalised to control; bars, SEM. (*p < 0.05; **p < 0.01)
A general note: Quantitative PCR measures a nucleic acid by following its amplification.

In a further data set the test system is SK1 protein. The experiment in a line: SK1 protein level (Figure S9). The data set is classed as cell-based.
For the next data set, the system named is MDA-MB-231 cells. The experiment in a line: MTT cell viability / proliferation assay. The data set is classed as cell-based, human. Particulars: 1, 2, 5 and 10 µM, up to 120 h. The protocol: Cellular viability was measured using the 3-(4,5-dimethylthiazol-2-yl)-2,5-diphenyltetrazolium bromide (MTT; 5 mg/ml) colorimetric assay as already described.
Fig. 4 Effect of compounds SK-A to SK-F on breast cancer cell viability. MDA-MB-231 cells were incubated with 1, 2, 5 and 10 µM of compounds SK-A to SK-F for up to 120 h. Cell proliferation was measured using MTT assay. Columns, means of three independent experiments normalised to control; bars, SEM. (*p < 0.05; **p < 0.01; ^§p < 0.001). IC50 levels for SK-F for 72, 96 and 120 h were 7, 4.5 and 3 µM, respectively

The subject of a further data set is SK. More on the design: method as in PMID 14522923. The settings on record: commercial inhibitor of SK, positive control; read-out: reported IC50; cited from earlier work.
Data set [2] has as its system 4T1 breast cancer allografts. Nature of the data set: 4T1 breast cancer allograft, tumour volume. The format is in vivo, BALB/c nude mice. Particulars: 5 mg/kg each drug i.p. twice a week for 2 weeks; control 468 mm^3. The procedure: Breast cancer allografts were established in 6–8-week-old BALB/c nude mice by injection of 10^6 4T1 cells into their mammary pad. Two weeks after implantation, mice were randomised into treatment groups (n = 6/group) and treated twice a week for 2 weeks with intraperitoneal injections of dimethyl sulfoxide (DMSO), 5 mg/kg DTX, 5 mg/kg SK-F, 5 mg/kg DTX + 5 mg/kg SK-F. One day after the last treatment, all mice were euthanized and blood was collected. Tumour long and short radii were measured using calipers and tumour volume (v) was calculated using the formula v = 4/3 πab^2 (a – long radius, b – short radius). Mice and individual organs were weighed and primary tumours were then processed for analysis of SK1 activity as described above. Full blood count and liver function test analysis was done in the Hammersmith hospital biochemical lab. […]
(§3) Fig. 5 Effect of compound SK-F on breast tumour growth and SK1 activity. […] Two weeks after implantation, mice were randomised into treatment groups (n = 6/group) and treated twice a week for 2 weeks with intraperitoneal injections of: DMSO, 5 mg/kg DTX, 5 mg/kg SK-F, 5 mg/kg DTX + 5 mg/kg SK-F. a Tumour volume in the different treatment groups of 4T1 breast cancer implanted in mouse mammary fat pad. b SK1 activity in tumours was measured using radiolabelling. […]

Another data set addresses T2, tumour SK1 (Mus musculus, UniProt Q8CI15).
T2 construct: primary tumours were then processed for analysis of SK1 activity as described above; from tissue; host or cells: 4T1 breast tumour allografts from BALB/c nude mice
Nature of the data set: SK1 activity in 4T1 allograft tumours. The format is in vivo, BALB/c nude mice. Particulars: 5 mg/kg each drug i.p. twice a week for 2 weeks. The procedure: (§4) Breast cancer allografts were established in 6–8-week-old BALB/c nude mice by injection of 10^6 4T1 cells into their mammary pad. Two weeks after implantation, mice were randomised into treatment groups (n = 6/group) and treated twice a week for 2 weeks with intraperitoneal injections of dimethyl sulfoxide (DMSO), 5 mg/kg DTX, 5 mg/kg SK-F, 5 mg/kg DTX + 5 mg/kg SK-F. One day after the last treatment, all mice were euthanized and blood was collected. Tumour long and short radii were measured using calipers and tumour volume (v) was calculated using the formula v = 4/3 πab^2 (a – long radius, b – short radius). Mice and individual organs were weighed and primary tumours were then processed for analysis of SK1 activity as described above. Full blood count and liver function test analysis was done in the Hammersmith hospital biochemical lab.
as §3

Data set [3] can be described thus: Whole-body toxicity: body and organ weights, full blood count. The format is in vivo, BALB/c nude mice. Particulars: 5 mg/kg each drug i.p. twice a week for 2 weeks, 4T1 tumour-bearing mice. The protocol:
as §4
Tumour-bearing mice were divided into four groups (n = 6) and injected with: DMSO, 5 mg/kg DTX, 5 mg/kg SK-F, 5 mg/kg DTX + 5 mg/kg SK-F. Two weeks after the tumour cells inoculation, we began intraperitoneal injections of drug preparations and continued these twice a week for two weeks. Based on our previous studies, we have chosen relatively smaller doses of SK-F and DTX in order to investigate their combined effect and potential chemosensitisation of breast tumours to taxane therapies. In the control group, tumours grew progressively and rapidly (Fig. 5a). […] Five mg/kg DTX has induced a significant reduction in tumour volume to 281 mm^3. The biggest reduction in tumour volume to 159 mm^3 was observed when DTX was combined with SK-F (Fig. 5a). […] We have further investigated the effects of the used treatments on mouse whole-body toxicity. DTX has reduced body and liver weight, while SK-F had no significant effect (Table 1). DTX has induced significant anaemia and leukopenia, while the effects of SK-F were very moderate. In all cases, the effects of combined therapy were similar to DTX alone (Table 1). Liver function test was performed as a surrogate marker for chemotherapy-induced liver damage (Fig. 6). […] The combination therapy had similar toxicity profile to DTX alone, while exerting higher antitumour efficacy (Fig. 5a).

The nature of data set [4]: Liver function tests in treated mice. Particulars: 5 mg/kg i.p. twice a week for 2 weeks. The format is in vivo, BALB/c nude mice. The procedure: as §4
Fig. 6 Liver function tests of mice treated with SK-F and docetaxel (DTX). Breast cancer allografts were established in BALB/c nude mice by injection of 4T1 cells into their mammary pad. Two weeks after implantation, mice were randomised into treatment groups (n = 6/group) and treated twice a week for two weeks with intraperitoneal injections of: DMSO, 5 mg/kg DTX, 5 mg/kg SK-F, 5 mg/kg DTX + 5 mg/kg SK-F. a Alanine transaminases (ALT). b Bilirubin. c Aspartate transaminase (AST). d Albumin. e Alkaline phosphatase (ALP). f Total protein. Columns, mean of n = 6 animals normalised to control; bars, SEM. (*p < 0.05; **p < 0.01)

Marks after values point to notes of the source that are not given here.

Sequence of recombinant SK1 (Q9NYA1 whole entry): as above
T2 sequence (Q8CI15 whole entry): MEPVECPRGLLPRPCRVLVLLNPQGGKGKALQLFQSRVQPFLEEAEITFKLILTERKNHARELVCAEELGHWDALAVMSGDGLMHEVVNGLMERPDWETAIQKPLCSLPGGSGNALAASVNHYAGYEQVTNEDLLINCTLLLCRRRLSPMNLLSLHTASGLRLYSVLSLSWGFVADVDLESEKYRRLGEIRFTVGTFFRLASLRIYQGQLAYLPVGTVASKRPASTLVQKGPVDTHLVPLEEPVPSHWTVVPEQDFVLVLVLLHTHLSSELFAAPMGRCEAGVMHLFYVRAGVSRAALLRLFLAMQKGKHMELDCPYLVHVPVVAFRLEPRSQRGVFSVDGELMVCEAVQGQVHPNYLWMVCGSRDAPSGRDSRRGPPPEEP

With `CCCCCCCCc1ccc(NC(=O)c2cccc(Cl)c2)cc1` [SK-E], the “inhibition of SK1 activity in cell-free settings” value on recombinant SK1 is “statistically significant inhibition”. Also, the “SK1 activity in cells versus vehicle” value in [1] is “significantly decreased”.

Turning to `CCCCCCCCc1ccc(NC(=O)C2CCNCC2)cc1` [SK-C], the “inhibition of SK1 activity in cell-free settings” value at recombinant SK1 is “ineffective”. Besides, in data set [1], the “SK1 activity in cells versus vehicle” value is reported as “significantly decreased”. Also, the “effect on SK1 mRNA expression” value with SK1 mRNA is on record as “reduction in SK1 mRNA”. Moreover, in the data set on SK1 protein, the “decrease in SK1 protein” value was 75%. Also, the “effect on MDA-MB-231 cancer cell proliferation” value in the data set with MDA-MB-231 cells is “highest effect”.

Usually IC50 stands for the concentration that inhibits the measured activity by half. For `Oc1ccc(Nc2nc(-c3ccc(Cl)cc3)cs2)cc1` [SKI-II, reference compound], in the data set on SK1 mRNA, the “effect on SK1 mRNA expression” value was “minimal effect”. In addition, the “effect on SK1 protein” value with SK1 protein is listed as “significant decrease”. For the same compound, in the data set with SK, the IC50 was 500 nM.

On to `CC(=O)O[C@@]12CO[C@@H]1C[C@H](O)[C@@]1(C)C(=O)[C@H](O)C3=C(C)[C@@H](OC(=O)[C@H](O)[C@@H](NC(=O)OC(C)(C)C)c4ccccc4)C[C@@](O)([C@@H](OC(=O)c4ccccc4)[C@H]21)C3(C)C` [DTX, docetaxel, reference compound], for which the “tumour volume at the end of the study” value in data set [2] stood at 281 mm^3. For the same compound, at tumour SK1, the “tumour SK1 activity” value is recorded as “no effect”. In addition, in data set [3], the Hb was 65 ± 7 % of control ± SEM, the WCC was 54 ± 4 % of control ± SEM, the “Weight of Body” value is 86 ± 7 % of control ± SEM and the “Weight of Kidney” value was 97 ± 5.9^a % of control ± SEM. Also, in data set [3], the “Weight of Liver” value is listed as 85.3 ± 11.4^a % of control ± SEM, the “Weight of Lungs” value is on record as 99.4 ± 4.a % of control ± SEM and the “Weight of Spleen” value is listed as 91.3 ± 15.4^a % of control ± SEM. Moreover, in data set [4], the “alanine transaminases (ALT)” value was “significant increases”, the “alkaline phosphatase (ALP)” value is listed as “milder increase” and the “aspartate transaminase (AST)” value is “significant increases”.
